In patent publication US20230143604A1, “QW DOSING OF GIP RECEPTOR AGONIST PEPTIDE COMPOUNDS AND USES THEREOF” (TAKEDA PHARMACEUTICAL COMPANY LIMITED, priority 2020, published 2023):
Starred links: 1 amine or outer side, 2 acyl side, 3 side chain; linkers in the order of their positions; H or OH if unused. Positions of bridges follow the written chain, without caps; N, C: chain ends. Non-standard residues stand in square brackets, D forms with d. Residues, ends and D or L forms follow the SMILES beside them. Groups on a side chain read outwards from the residue. Chains are numbered I, II in the order given. *: point of attachment. C18 diacid = O=C(O)CCCCCCCCCCCCCCCCC(=O)*; γGlu = O=C(O)[C@H](CCC(=O)[*:2])N[*:1]; NMeY = CN[C@@H](Cc1ccc(O)cc1)C(=O)O; AEEA = NCCOCCOCC(=O)O; Aib = CC(C)(N)C(=O)O

Test: Solubility in phosphate buffer pH 7.4
Outline: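 Solubility at pH 7.4 determined by stepwise addition of 200 mM phosphate buffer in 100 μL increments to 3 mg peptide, mixing briefly each time, until no insoluble material remained, then measured by liquid chromatography.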

[1] = pH 7.4, aqueous buffer, pH 7.4 Phosphate Buffer - Solubility, 200 mM Phosphate buffer pH 7.4
[2] = pH 7.4, solubility in phosphate buffer at pH 7.4, 200 mM phosphate buffer pH 7.4

| SMILES | solubility [1] [mg/mL] | solubility [2] [mg/mL] | solubility (pH 7.4) [mg/mL] | solubility (pH 7.4, aqueous buffer) [mg/mL] |
| --- | --- | --- | --- | --- |
| CC[C@H](C)[C@H](NC(=O)[C@H](Cc1ccccc1)NC(=O)[C@@H](NC(=O)CNC(=O)[C@H](CCC(=O)O)NC(=O)C(C)(C)NC(=O)[C@H](Cc1ccc(O)cc1)NC)[C@@H](C)O)C(=O)N[C@@H](CO)C(=O)N[C@@H](CC(=O)O)C(=O)N[C@@H](Cc1ccc(O)cc1)C(=O)N[C@@H](CO)C(=O)N[C@H](C(=O)NC(C)(C)C(=O)N[C@@H](CC(C)C)C(=O)N[C@@H](CC(=O)O)C(=O)N[C@@H](CCCNC(=N)N)C(=O)NC(C)(C)C(=O)N[C@@H](C)C(=O)N[C@@H](C)C(=O)NC(C)(C)C(=O)N[C@@H](CCCCNC(=O)COCCOCCNC(=O)COCCOCCNC(=O)CC[C@H](NC(=O)CC[C@H](NC(=O)CCCCCCCCCCCCCCCCC(=O)O)C(=O)O)C(=O)O)C(=O)N[C@@H](Cc1ccccc1)C(=O)N[C@H](C(=O)N[C@@H](CC(N)=O)C(=O)N[C@@H](Cc1c[nH]c2ccccc12)C(=O)N[C@@H](CC(C)C)C(=O)N[C@@H](CC(C)C)C(=O)N[C@@H](C)C(=O)N[C@@H](CCC(N)=O)C(=O)N[C@@H](CCCNC(=N)N)C(=O)N1CCC[C@H]1C(=O)N[C@@H](CO)C(=O)N[C@@H](CO)C(=O)NCC(=O)N[C@@H](C)C(=O)N1CCC[C@H]1C(=O)N1CCC[C@H]1C(=O)N1CCC[C@H]1C(=O)N[C@@H](CO)C(N)=O)C(C)C)[C@@H](C)CC [Compound 106] (H-[NMeY][Aib]EGTFISDYSI[Aib]LDR[Aib]AA[Aib]K([AEEA-AEEA-γGlu-γGlu-C18 diacid])FVNWLLAQRPSSGAPPPS-NH2) | ≥ 30 | ≥ 15 |  |  |
| CC[C@H](C)[C@H](NC(=O)[C@H](Cc1ccccc1)NC(=O)[C@@H](NC(=O)CNC(=O)[C@H](CCC(=O)O)NC(=O)C(C)(C)NC(=O)[C@H](Cc1ccc(O)cc1)NC)[C@@H](C)O)C(=O)N[C@@H](CO)C(=O)N[C@@H](CC(=O)O)C(=O)N[C@@H](Cc1ccc(O)cc1)C(=O)N[C@@H](CO)C(=O)N[C@H](C(=O)NC(C)(C)C(=O)N[C@@H](CC(C)C)C(=O)N[C@@H](CC(=O)O)C(=O)N[C@@H](CCCNC(=N)N)C(=O)NC(C)(C)C(=O)N[C@@H](C)C(=O)N[C@@H](C)C(=O)NC(C)(C)C(=O)N[C@@H](CCCCNC(=O)COCCOCCNC(=O)COCCOCCNC(=O)CC[C@H](NC(=O)CC[C@H](NC(=O)CCCCCCCCCCCCCCCCC(=O)O)C(=O)O)C(=O)O)C(=O)N[C@@H](Cc1ccccc1)C(=O)N[C@H](C(=O)N[C@@H](CC(N)=O)C(=O)N[C@@H](Cc1c[nH]c2ccccc12)C(=O)N[C@@H](CC(C)C)C(=O)N[C@@H](CC(C)C)C(=O)N[C@@H](C)C(=O)N[C@@H](CCC(N)=O)C(=O)N[C@@H](CO)C(=O)N1CCC[C@H]1C(=O)N[C@@H](CO)C(=O)N[C@@H](CO)C(=O)NCC(=O)N[C@@H](C)C(=O)N1CCC[C@H]1C(=O)N1CCC[C@H]1C(=O)N1CCC[C@H]1C(=O)N[C@@H](CO)C(N)=O)C(C)C)[C@@H](C)CC [Compound 107] (H-[NMeY][Aib]EGTFISDYSI[Aib]LDR[Aib]AA[Aib]K([AEEA-AEEA-γGlu-γGlu-C18 diacid])FVNWLLAQSPSSGAPPPS-NH2) | ≥ 60 | ≥ 15 |  |  |
| CC[C@H](C)[C@H](NC(=O)[C@H](Cc1ccccc1)NC(=O)[C@@H](NC(=O)CNC(=O)[C@H](CCC(=O)O)NC(=O)C(C)(C)NC(=O)[C@H](Cc1ccc(O)cc1)NC)[C@@H](C)O)C(=O)N[C@@H](CO)C(=O)N[C@@H](CC(=O)O)C(=O)N[C@@H](Cc1ccc(O)cc1)C(=O)N[C@@H](CO)C(=O)N[C@H](C(=O)NC(C)(C)C(=O)N[C@@H](CC(C)C)C(=O)N[C@@H](CC(=O)O)C(=O)N[C@@H](CCCNC(=N)N)C(=O)NC(C)(C)C(=O)N[C@@H](CCCCNC(=O)COCCOCCNC(=O)COCCOCCNC(=O)CC[C@H](NC(=O)CC[C@H](NC(=O)CCCCCCCCCCCCCCCCC(=O)O)C(=O)O)C(=O)O)C(=O)N[C@@H](C)C(=O)NC(C)(C)C(=O)N[C@@H](CC(N)=O)C(=O)N[C@@H](Cc1ccccc1)C(=O)N[C@H](C(=O)N[C@@H](CC(N)=O)C(=O)N[C@@H](Cc1c[nH]c2ccccc12)C(=O)N[C@@H](CC(C)C)C(=O)N[C@@H](CC(C)C)C(=O)N[C@@H](C)C(=O)N[C@@H](CCC(N)=O)C(=O)N[C@@H](CO)C(=O)N1CCC[C@H]1C(=O)N[C@@H](CO)C(=O)N[C@@H](CO)C(=O)NCC(=O)N[C@@H](C)C(=O)N1CCC[C@H]1C(=O)N1CCC[C@H]1C(=O)N1CCC[C@H]1C(=O)N[C@@H](CO)C(N)=O)C(C)C)[C@@H](C)CC [Compound 109] (H-[NMeY][Aib]EGTFISDYSI[Aib]LDR[Aib]K([AEEA-AEEA-γGlu-γGlu-C18 diacid])A[Aib]NFVNWLLAQSPSSGAPPPS-NH2) | ≥ 60 | ≥ 15 |  |  |
| CC[C@H](C)[C@H](NC(=O)[C@H](Cc1ccccc1)NC(=O)[C@@H](NC(=O)CNC(=O)[C@H](CCC(=O)O)NC(=O)C(C)(C)NC(=O)[C@H](Cc1ccc(O)cc1)NC)[C@@H](C)O)C(=O)N[C@@H](CO)C(=O)N[C@@H](CC(=O)O)C(=O)N[C@@H](Cc1ccc(O)cc1)C(=O)N[C@@H](CO)C(=O)N[C@H](C(=O)NC(C)(C)C(=O)N[C@@H](CC(C)C)C(=O)N[C@@H](CC(=O)O)C(=O)N[C@@H](CCCNC(=N)N)C(=O)NC(C)(C)C(=O)N[C@@H](C)C(=O)N[C@@H](CCC(N)=O)C(=O)NC(C)(C)C(=O)N[C@@H](CCCCNC(=O)COCCOCCNC(=O)COCCOCCNC(=O)CC[C@H](NC(=O)CC[C@H](NC(=O)CCCCCCCCCCCCCCCCC(=O)O)C(=O)O)C(=O)O)C(=O)N[C@@H](Cc1ccccc1)C(=O)N[C@H](C(=O)N[C@@H](CCC(=O)O)C(=O)N[C@@H](Cc1c[nH]c2ccccc12)C(=O)N[C@@H](CC(C)C)C(=O)N[C@@H](CC(C)C)C(=O)N[C@@H](C)C(=O)N[C@@H](CCC(N)=O)C(=O)N[C@@H](CCCCN)C(=O)NCC(=O)O)C(C)C)[C@@H](C)CC [Compound 110] (H-[NMeY][Aib]EGTFISDYSI[Aib]LDR[Aib]AQ[Aib]K([AEEA-AEEA-γGlu-γGlu-C18 diacid])FVEWLLAQKG-OH) |  |  | ≥ 15 | ≥ 60 |
| CC[C@H](C)[C@H](NC(=O)[C@H](CO)NC(=O)[C@H](Cc1ccc(O)cc1)NC(=O)[C@H](CC(=O)O)NC(=O)[C@H](CO)NC(=O)[C@@H](NC(=O)[C@H](Cc1ccccc1)NC(=O)[C@@H](NC(=O)CNC(=O)[C@H](CCC(=O)O)NC(=O)C(C)(C)NC(=O)[C@H](Cc1ccc(O)cc1)NC)[C@@H](C)O)[C@@H](C)CC)C(=O)N[C@@H](C)C(=O)N[C@@H](CC(C)C)C(=O)N[C@@H](CC(=O)O)C(=O)N[C@@H](CCCNC(=N)N)C(=O)NC(C)(C)C(=O)N[C@@H](C)C(=O)N[C@@H](CCC(N)=O)C(=O)NC(C)(C)C(=O)N[C@@H](CCCCNC(=O)CNC(=O)CNC(=O)[C@@H]1CCCN1C(=O)[C@H](C)NC(=O)[C@@H]1CCCN1C(=O)[C@H](C)NC(=O)[C@@H]1CCCN1C(=O)CC[C@H](NC(=O)CCCCCCCCCCCCCCCCC(=O)O)C(=O)O)C(=O)N[C@@H](Cc1ccccc1)C(=O)N[C@H](C(=O)N[C@@H](CC(N)=O)C(=O)N[C@@H](Cc1c[nH]c2ccccc12)C(=O)N[C@@H](CC(C)C)C(=O)N[C@@H](CC(C)C)C(=O)N[C@@H](C)C(=O)N[C@@H](CCC(N)=O)C(=O)N[C@@H](CO)C(=O)N1CCC[C@H]1C(=O)NCC(=O)O)C(C)C [Compound 117] (I: H-[NMeY][Aib]EGTFISDYSIALDR[Aib]AQ[Aib]KFVNWLLAQSPG-OH / II: {C18 diacid-γGlu}-PAPAPGG; amide I:21-II:C) |  |  | ≥ 15 | ≥ 30 |
| CC[C@H](C)[C@H](NC(=O)[C@H](CO)NC(=O)[C@H](Cc1ccc(O)cc1)NC(=O)[C@H](CC(=O)O)NC(=O)[C@H](CO)NC(=O)[C@@H](NC(=O)[C@H](Cc1ccccc1)NC(=O)[C@@H](NC(=O)CNC(=O)[C@H](CCC(=O)O)NC(=O)C(C)(C)NC(=O)[C@H](Cc1ccc(O)cc1)NC)[C@@H](C)O)[C@@H](C)CC)C(=O)N[C@@H](C)C(=O)N[C@@H](CCCCNC(=O)CNC(=O)CNC(=O)CNC(=O)CNC(=O)CNC(=O)CCCCCCCCCCCCCCCCC(=O)O)C(=O)N[C@@H](CC(=O)O)C(=O)N[C@@H](CCCNC(=N)N)C(=O)NC(C)(C)C(=O)N[C@@H](C)C(=O)N[C@@H](CCC(N)=O)C(=O)NC(C)(C)C(=O)N[C@@H](CC(=O)O)C(=O)N[C@@H](Cc1ccccc1)C(=O)N[C@H](C(=O)N[C@@H](CCC(=O)O)C(=O)N[C@@H](Cc1c[nH]c2ccccc12)C(=O)N[C@@H](CC(C)C)C(=O)N[C@@H](CC(C)C)C(=O)N[C@@H](C)C(=O)N[C@@H](CCC(N)=O)C(=O)N[C@@H](CO)C(=O)N1CCC[C@H]1C(=O)NCC(=O)O)C(C)C [Compound 118] |  |  | ≥ 15 | ≥ 30 |
| CC[C@H](C)[C@H](NC(=O)[C@H](CO)NC(=O)[C@H](Cc1ccc(O)cc1)NC(=O)[C@H](CC(=O)O)NC(=O)[C@H](CO)NC(=O)[C@@H](NC(=O)[C@H](Cc1ccccc1)NC(=O)[C@@H](NC(=O)CNC(=O)[C@H](CCC(=O)O)NC(=O)C(C)(C)NC(=O)[C@H](Cc1ccc(O)cc1)NC)[C@@H](C)O)[C@@H](C)CC)C(=O)N[C@@H](C)C(=O)N[C@@H](CC(C)C)C(=O)N[C@@H](CC(=O)O)C(=O)N[C@@H](CCCNC(=N)N)C(=O)NC(C)(C)C(=O)N[C@@H](C)C(=O)N[C@@H](CCC(N)=O)C(=O)NC(C)(C)C(=O)N[C@@H](CCCCNC(=O)COCCOCCNC(=O)COCCOCCNC(=O)CC[C@H](NC(=O)CC[C@H](NC(=O)CCCCCCCCCCCCCCCCC(=O)O)C(=O)O)C(=O)O)C(=O)N[C@@H](Cc1ccccc1)C(=O)N[C@H](C(=O)N[C@@H](CCC(=O)O)C(=O)N[C@@H](Cc1c[nH]c2ccccc12)C(=O)N[C@@H](CC(C)C)C(=O)N[C@@H](CC(C)C)C(=O)N[C@@H](C)C(=O)N[C@@H](CCC(N)=O)C(=O)N[C@@H](CO)C(=O)N1CCC[C@H]1C(=O)NCC(=O)O)C(C)C [Compound 119] (H-[NMeY][Aib]EGTFISDYSIALDR[Aib]AQ[Aib]K([AEEA-AEEA-γGlu-γGlu-C18 diacid])FVEWLLAQSPG-OH) |  |  | ≥ 15 | ≥ 30 |
